Reference: PubChem BioAssay (NCI)
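Dose response: 5 concentrations. Exposure: 48 h. Format: 96-well plates. Endpoint: linear interpolation; highest concentration if not reached. Abbreviation: GI50, concentration required for 50% inhibition of growth. TGI: concentration producing complete growth inhibition.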

Experiments:
Assay in all cases: DTP human tumour cell line panel, 48 h
786-0 renal = system: 786-0 renal
A498 renal = system: A498 renal
A549 NSCLC = system: A549 NSCLC
ACHN renal = system: ACHN renal
BT-549 breast = system: BT-549 breast
CAKI-1 renal = system: CAKI-1 renal
CCRF-CEM leukemia = system: CCRF-CEM leukemia
COLO 205 colon = system: COLO 205 colon
DU-145 prostate = system: DU-145 prostate
EKVX NSCLC = system: EKVX NSCLC
HCC-2998 colon = system: HCC-2998 colon
HCT-116 colon = system: HCT-116 colon
HCT-15 colon = system: HCT-15 colon
HL-60(TB) leukemia = system: HL-60(TB) leukemia
HOP-62 NSCLC = system: HOP-62 NSCLC
HOP-92 NSCLC = system: HOP-92 NSCLC
HS 578T breast = system: HS 578T breast
HT29 colon = system: HT29 colon
IGROV1 ovarian = system: IGROV1 ovarian
K-562 leukemia = system: K-562 leukemia
KM12 colon = system: KM12 colon
LOX IMVI melanoma = system: LOX IMVI melanoma
M14 melanoma = system: M14 melanoma
MALME-3M melanoma = system: MALME-3M melanoma
MCF7 breast = system: MCF7 breast
MDA-MB-231 breast = system: MDA-MB-231 breast
MDA-MB-435 = system: MDA-MB-435
MOLT-4 leukemia = system: MOLT-4 leukemia
NCI-H226 lung = system: NCI-H226 lung
NCI-H23 lung = system: NCI-H23 lung
NCI-H460 lung = system: NCI-H460 lung
NCI-H522 lung = system: NCI-H522 lung
NCI/ADR-RES ovarian = system: NCI/ADR-RES ovarian
OVCAR-3 ovarian = system: OVCAR-3 ovarian
OVCAR-4 ovarian = system: OVCAR-4 ovarian
OVCAR-5 ovarian = system: OVCAR-5 ovarian
OVCAR-8 ovarian = system: OVCAR-8 ovarian
PC-3 prostate = system: PC-3 prostate
RPMI-8226 leukemia = system: RPMI-8226 leukemia
RXF 393 renal = system: RXF 393 renal
SF-268 CNS = system: SF-268 CNS
SF-295 CNS = system: SF-295 CNS
SF-539 CNS = system: SF-539 CNS
SK-MEL-2 melanoma = system: SK-MEL-2 melanoma
SK-MEL-28 melanoma = system: SK-MEL-28 melanoma
SK-MEL-5 melanoma = system: SK-MEL-5 melanoma
SK-OV-3 ovarian = system: SK-OV-3 ovarian
SN12C renal = system: SN12C renal
SNB-19 CNS = system: SNB-19 CNS
SNB-75 CNS = system: SNB-75 CNS
SR leukemia = system: SR leukemia
SW-620 colon = system: SW-620 colon
T-47D breast = system: T-47D breast
TK-10 renal = system: TK-10 renal
U251 CNS = system: U251 CNS
UACC-257 melanoma = system: UACC-257 melanoma
UACC-62 melanoma = system: UACC-62 melanoma
UO-31 renal = system: UO-31 renal

Compound `CCn1cc(C2NC(=O)c3ccccc3N2)c2cccc(C)c21` (stereo not drawn) has a GI50 (786-0 renal) of 0.539 µM, a TGI (786-0 renal) of 22.3 µM and a GI50 (A498 renal) of 0.172 µM. The TGI (A498 renal) was 0.947 µM, the GI50 (A549 NSCLC) was 0.653 µM and the TGI (A549 NSCLC) was 14.7 µM. It also gave a GI50 (ACHN renal) of 0.685 µM, a TGI (ACHN renal) of 23.1 µM and a GI50 (BT-549 breast) of 0.901 µM. It also gave a TGI (BT-549 breast) of 17.6 µM, a GI50 (CAKI-1 renal) of 0.289 µM and a TGI (CAKI-1 renal) of 20.4 µM. It also gave a GI50 (CCRF-CEM leukemia) of 0.324 µM, a TGI (CCRF-CEM leukemia) of 96.9 µM and a GI50 (COLO 205 colon) of 0.485 µM. It also gave a TGI (COLO 205 colon) of 9.88 µM, a GI50 (DU-145 prostate) of 0.43 µM and a TGI (DU-145 prostate) of 27.9 µM. It also gave a GI50 (EKVX NSCLC) of 0.621 µM, a TGI (EKVX NSCLC) greater than 100 µM and a GI50 (HCC-2998 colon) of 1.08 µM. For the same compound, the TGI (HCC-2998 colon) was 8.22 µM, the GI50 (HCT-116 colon) was 0.409 µM and the TGI (HCT-116 colon) was 11.5 µM. It also gave a GI50 (HCT-15 colon) of 0.36 µM, a TGI (HCT-15 colon) of 24.5 µM and a GI50 (HL-60(TB) leukemia) of 0.31 µM. The TGI (HL-60(TB) leukemia) was 1.06 µM, the GI50 (HOP-62 NSCLC) was 0.517 µM and the TGI (HOP-62 NSCLC) was 34.2 µM. For the same compound, the GI50 (HOP-92 NSCLC) was 4.79 µM, the TGI (HOP-92 NSCLC) was greater than 78.7 µM and the GI50 (HS 578T breast) was 0.255 µM. The TGI (HS 578T breast) was 1.95 µM, the GI50 (HT29 colon) was 0.331 µM and the TGI (HT29 colon) was 4.29 µM. It also gave a GI50 (IGROV1 ovarian) of 0.473 µM, a TGI (IGROV1 ovarian) greater than 100 µM and a GI50 (K-562 leukemia) of 0.224 µM. The TGI (K-562 leukemia) was greater than 100 µM, the GI50 (KM12 colon) was 0.389 µM and the TGI (KM12 colon) was 22.2 µM. The GI50 (LOX IMVI melanoma) was 0.571 µM, the TGI (LOX IMVI melanoma) was 13.7 µM and the GI50 (M14 melanoma) was 0.298 µM. For the same compound, the TGI (M14 melanoma) was greater than 100 µM, the GI50 (MALME-3M melanoma) was 0.449 µM and the TGI (MALME-3M melanoma) was greater than 100 µM. It also gave a GI50 (MCF7 breast) of 0.298 µM, a TGI (MCF7 breast) greater than 100 µM and a GI50 (MDA-MB-231 breast) of 0.991 µM. It also gave a TGI (MDA-MB-231 breast) of 12 µM, a GI50 (MDA-MB-435) of 0.142 µM and a TGI (MDA-MB-435) of 0.357 µM. For the same compound, the GI50 (MOLT-4 leukemia) was 0.531 µM, the TGI (MOLT-4 leukemia) was greater than 100 µM and the GI50 (NCI-H226 lung) was 0.572 µM. It also gave a TGI (NCI-H226 lung) of 13.2 µM, a GI50 (NCI-H23 lung) of 0.844 µM and a TGI (NCI-H23 lung) greater than 100 µM. It also gave a GI50 (NCI-H460 lung) of 0.346 µM, a TGI (NCI-H460 lung) of 1.46 µM and a GI50 (NCI-H522 lung) of 0.265 µM. For the same compound, the TGI (NCI-H522 lung) was 17.6 µM, the GI50 (NCI/ADR-RES ovarian) was 0.319 µM and the TGI (NCI/ADR-RES ovarian) was 4.57 µM. For the same compound, the GI50 (OVCAR-3 ovarian) was 0.275 µM, the TGI (OVCAR-3 ovarian) was 1.02 µM and the GI50 (OVCAR-4 ovarian) was 1.49 µM. It also gave a TGI (OVCAR-4 ovarian) of 13.1 µM, a GI50 (OVCAR-5 ovarian) of 0.915 µM and a TGI (OVCAR-5 ovarian) greater than 91.6 µM. For the same compound, the GI50 (OVCAR-8 ovarian) was 0.617 µM, the TGI (OVCAR-8 ovarian) was 22.6 µM and the GI50 (PC-3 prostate) was 0.443 µM. It also gave a TGI (PC-3 prostate) greater than 100 µM, a GI50 (RPMI-8226 leukemia) of 0.381 µM and a TGI (RPMI-8226 leukemia) greater than 100 µM. For the same compound, the GI50 (RXF 393 renal) was 0.199 µM, the TGI (RXF 393 renal) was 0.658 µM and the GI50 (SF-268 CNS) was 1.36 µM. The TGI (SF-268 CNS) was greater than 68 µM, the GI50 (SF-295 CNS) was 0.293 µM and the GI50 (SF-539 CNS) was 0.275 µM. It also gave a TGI (SF-539 CNS) of 1.34 µM, a GI50 (SK-MEL-2 melanoma) of 0.631 µM and a TGI (SK-MEL-2 melanoma) greater than 100 µM. For the same compound, the GI50 (SK-MEL-28 melanoma) was 2.04 µM, the TGI (SK-MEL-28 melanoma) was greater than 100 µM and the GI50 (SK-MEL-5 melanoma) was 0.338 µM. The TGI (SK-MEL-5 melanoma) was 5.87 µM, the GI50 (SK-OV-3 ovarian) was 0.522 µM and the TGI (SK-OV-3 ovarian) was greater than 86.1 µM. It also gave a GI50 (SN12C renal) of 0.579 µM, a TGI (SN12C renal) of 17 µM and a GI50 (SNB-19 CNS) of 0.456 µM. It also gave a TGI (SNB-19 CNS) greater than 100 µM, a GI50 (SNB-75 CNS) of 0.184 µM and a TGI (SNB-75 CNS) of 0.829 µM. It also gave a GI50 (SR leukemia) of 0.261 µM, a TGI (SR leukemia) greater than 100 µM and a GI50 (SW-620 colon) of 0.337 µM. It also gave a TGI (SW-620 colon) greater than 100 µM, a GI50 (T-47D breast) of 0.556 µM and a TGI (T-47D breast) greater than 100 µM. It also gave a GI50 (TK-10 renal) of 3 µM, a TGI (TK-10 renal) greater than 40.9 µM and a GI50 (U251 CNS) of 0.456 µM. It also gave a TGI (U251 CNS) of 13.9 µM, a GI50 (UACC-257 melanoma) of 60 µM and a TGI (UACC-257 melanoma) greater than 100 µM. The GI50 (UACC-62 melanoma) was 0.311 µM, the TGI (UACC-62 melanoma) was greater than 100 µM and the GI50 (UO-31 renal) was 0.631 µM. It also gave a TGI (UO-31 renal) of 16.4 µM.
`Cc1ccc(SC2=C(N(C)C)C(=O)c3ccccc3C2=O)cc1` was tested, and the TGI (786-0 renal) was greater than 32.2 µM, the TGI (A498 renal) was 50.3 µM and the TGI (A549 NSCLC) was 30.2 µM. The TGI (ACHN renal) was 21.4 µM, the TGI (BT-549 breast) was 26.6 µM and the TGI (CAKI-1 renal) was 9.73 µM. For the same compound, the TGI (CCRF-CEM leukemia) was 17.5 µM, the TGI (COLO 205 colon) was 51.5 µM and the TGI (DU-145 prostate) was 23 µM. It also gave a TGI (EKVX NSCLC) of 20.1 µM, a TGI (HCC-2998 colon) of 32.4 µM and a TGI (HCT-116 colon) of 7.26 µM. The TGI (HCT-15 colon) was greater than 39.9 µM, the TGI (HL-60(TB) leukemia) was 16.9 µM and the TGI (HOP-62 NSCLC) was 23.6 µM. It also gave a TGI (HOP-92 NSCLC) of 18.3 µM, a TGI (HS 578T breast) greater than 27.6 µM and a TGI (HT29 colon) of 31 µM. The TGI (IGROV1 ovarian) was 17.6 µM, the TGI (K-562 leukemia) was 7.68 µM and the TGI (KM12 colon) was 16.4 µM. The TGI (LOX IMVI melanoma) was 24.6 µM, the TGI (M14 melanoma) was 16.4 µM and the TGI (MALME-3M melanoma) was 18.4 µM. It also gave a TGI (MCF7 breast) of 17.5 µM, a TGI (MDA-MB-231 breast) of 20.1 µM and a TGI (MDA-MB-435) of 1.22 µM. It also gave a TGI (MOLT-4 leukemia) of 12.4 µM, a TGI (NCI-H226 lung) of 25.8 µM and a TGI (NCI-H23 lung) of 10.4 µM. It also gave a TGI (NCI-H460 lung) of 18.5 µM, a TGI (NCI-H522 lung) of 10.5 µM and a TGI (NCI/ADR-RES ovarian) of 6.35 µM. The TGI (OVCAR-3 ovarian) was 2.96 µM, the TGI (OVCAR-4 ovarian) was 24.8 µM and the TGI (OVCAR-5 ovarian) was 40.3 µM. The TGI (OVCAR-8 ovarian) was 6.44 µM, the TGI (PC-3 prostate) was 18.7 µM and the TGI (RPMI-8226 leukemia) was 11.7 µM. The TGI (RXF 393 renal) was 20.8 µM, the TGI (SF-268 CNS) was 18.4 µM and the TGI (SF-295 CNS) was 25.6 µM. The TGI (SF-539 CNS) was 9.71 µM, the TGI (SK-MEL-2 melanoma) was 23.5 µM and the TGI (SK-MEL-28 melanoma) was 25.8 µM. It also gave a TGI (SK-MEL-5 melanoma) of 8.6 µM, a TGI (SK-OV-3 ovarian) of 41.9 µM and a TGI (SN12C renal) of 16.6 µM. It also gave a TGI (SNB-19 CNS) of 29.6 µM, a TGI (SNB-75 CNS) of 43.5 µM and a TGI (SR leukemia) of 3.84 µM. The TGI (SW-620 colon) was 16.1 µM, the TGI (T-47D breast) was greater than 38 µM and the TGI (TK-10 renal) was 21.6 µM. It also gave a TGI (U251 CNS) of 23.7 µM, a TGI (UACC-257 melanoma) of 15.6 µM and a TGI (UACC-62 melanoma) of 17.8 µM. For the same compound, the TGI (UO-31 renal) was 21.9 µM.
